Assay results reported in US9993494B2, “Compositions and methods for treating fibrotic disease” (eFFECTOR Therapeutics, Inc., priority 2014, dated 2018).

Test system: normal human lung fibroblasts
Experiment: Ribosomal profiling: translational efficiency in TGFβ-treated fibroblasts
Format: cell-based
Details: TGFβ-treated fibroblasts
In short: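 Genome-wide RPF and total RNA libraries (ARTseq, RNA-Seq) were made from lysates of cycloheximide-treated, PBS-washed cells. After trimming and human-genome mapping, per-gene coding-region counts were compared between RPF and RNA for translational efficiency. Genes scoring low in either fraction were dropped.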

Structure (SMILES): Cc1cc(C2CCCCC2)n(O)c(=O)c1.NCCO [CPX, ciclopirox oloamine]
- renormalizing the translational profile of DNASE1L1 (ENSG00000013563): − (− = <0.9)
- renormalizing the translational profile of KITLG (ENSG00000049130): − (− = <0.9)
- renormalizing the translational profile of ADAMTS6 (ENSG00000049192): − (− = <0.9)
- renormalizing the translational profile of LETMD1 (ENSG00000050426): − (− = <0.9)
- renormalizing the translational profile of PLEKHA5 (ENSG00000052126): − (− = <0.9)
- renormalizing the translational profile of EIF4B (ENSG00000063046): − (− = <0.9)
- renormalizing the translational profile of RPL18 (ENSG00000063177): − (− = <0.9)
- renormalizing the translational profile of HIPK2 (ENSG00000064393): − (− = <0.9)
- renormalizing the translational profile of ASPM (ENSG00000066279): − (− = <0.9)
- renormalizing the translational profile of RASSF1 (ENSG00000068028): − (− = <0.9)
- renormalizing the translational profile of PABPC1 (ENSG00000070756): − (− = <0.9)
- renormalizing the translational profile of RPL31 (ENSG00000071082): − (− = <0.9)
- renormalizing the translational profile of PLD1 (ENSG00000075651): − (− = <0.9)
- renormalizing the translational profile of EDN1 (ENSG00000078401): − (− = <0.9)
- renormalizing the translational profile of AURKA (ENSG00000087586): − (− = <0.9)
- renormalizing the translational profile of EPB41L1 (ENSG00000088367): − (− = <0.9)
- renormalizing the translational profile of RPL6 (ENSG00000089009): − (− = <0.9)
- renormalizing the translational profile of P2RX7 (ENSG00000089041): ++ (++ = 1.5 to 2.0)
- renormalizing the translational profile of KDM2B (ENSG00000089094): − (− = <0.9)
- renormalizing the translational profile of RPLP0 (ENSG00000089157): − (− = <0.9)
- renormalizing the translational profile of IGBP1 (ENSG00000089289): − (− = <0.9)
- renormalizing the translational profile of IRAK3 (ENSG00000090376): − (− = <0.9)
- renormalizing the translational profile of PABPC4 (ENSG00000090621): − (− = <0.9)
- renormalizing the translational profile of FMO2 (ENSG00000094963): − (− = <0.9)
- renormalizing the translational profile of ACOT7 (ENSG00000097021): − (− = <0.9)
- renormalizing the translational profile of ATP5D (ENSG00000099624): − (− = <0.9)
- renormalizing the translational profile of LGALS1 (ENSG00000100097): − (− = <0.9)
- renormalizing the translational profile of EIF3L (ENSG00000100129): − (− = <0.9)
- renormalizing the translational profile of RPL3 (ENSG00000100316): − (− = <0.9)
- renormalizing the translational profile of CEP192 (ENSG00000101639): − (− = <0.9)
- renormalizing the translational profile of AMMECR1 (ENSG00000101935): − (− = <0.9)
- renormalizing the translational profile of PLP2 (ENSG00000102007): − (− = <0.9)
- renormalizing the translational profile of EIF3E (ENSG00000104408): − (− = <0.9)
- renormalizing the translational profile of EEF1D (ENSG00000104529): − (− = <0.9)
- renormalizing the translational profile of C19orf53 (ENSG00000104979): − (− = <0.9)
- renormalizing the translational profile of GLTSCR2 (ENSG00000105373): + (+ = 0.9 to 1.5)
- renormalizing the translational profile of RAB3D (ENSG00000105514): − (− = <0.9)
- renormalizing the translational profile of RPL18A (ENSG00000105640): − (− = <0.9)
- renormalizing the translational profile of COMP (ENSG00000105664): − (− = <0.9)
- renormalizing the translational profile of GLCCI1 (ENSG00000106415): − (− = <0.9)
- renormalizing the translational profile of CORO2A (ENSG00000106789): − (− = <0.9)
- renormalizing the translational profile of GDF10 (ENSG00000107623): + (+ = 0.9 to 1.5)
- renormalizing the translational profile of RPL28 (ENSG00000108107): − (− = <0.9)
- renormalizing the translational profile of RPL19 (ENSG00000108298): − (− = <0.9)
- renormalizing the translational profile of RASD1 (ENSG00000108551): − (− = <0.9)
- renormalizing the translational profile of NAT9 (ENSG00000109065): − (− = <0.9)
- renormalizing the translational profile of RPL34 (ENSG00000109475): − (− = <0.9)
- renormalizing the translational profile of CRYAB (ENSG00000109846): − (− = <0.9)
- renormalizing the translational profile of GAPDH (ENSG00000111640): − (− = <0.9)
- renormalizing the translational profile of C12orf57 (ENSG00000111678): − (− = <0.9)
- renormalizing the translational profile of HBEGF (ENSG00000113070): − (− = <0.9)
- renormalizing the translational profile of RPL24 (ENSG00000114391): − (− = <0.9)
- renormalizing the translational profile of EEF1B2 (ENSG00000114942): − (− = <0.9)
- renormalizing the translational profile of IFIH1 (ENSG00000115267): − (− = <0.9)
- renormalizing the translational profile of DPH5 (ENSG00000117543): − (− = <0.9)
- renormalizing the translational profile of PPL (ENSG00000118898): − (− = <0.9)
- renormalizing the translational profile of PLEKHG1 (ENSG00000120278): + (+ = 0.9 to 1.5)
- renormalizing the translational profile of LIAS (ENSG00000121897): − (− = <0.9)
- renormalizing the translational profile of GPSM2 (ENSG00000121957): − (− = <0.9)
- renormalizing the translational profile of RPL21 (ENSG00000122026): − (− = <0.9)
- renormalizing the translational profile of RPL5 (ENSG00000122406): − (− = <0.9)
- renormalizing the translational profile of INHBA (ENSG00000122641): − (− = <0.9)
- renormalizing the translational profile of CIT (ENSG00000122966): − (− = <0.9)
- renormalizing the translational profile of RPL23 (ENSG00000125691): − (− = <0.9)
- renormalizing the translational profile of LAMP5 (ENSG00000125869): + (+ = 0.9 to 1.5)
- renormalizing the translational profile of NECAB3 (ENSG00000125967): − (− = <0.9)
- renormalizing the translational profile of COX7C (ENSG00000127184): − (− = <0.9)
- renormalizing the translational profile of LIF (ENSG00000128342): − (− = <0.9)
- renormalizing the translational profile of MTUS1 (ENSG00000129422): − (− = <0.9)
- renormalizing the translational profile of ARHGEF6 (ENSG00000129675): − (− = <0.9)
- renormalizing the translational profile of RPL36 (ENSG00000130255): − (− = <0.9)
- renormalizing the translational profile of GDF15 (ENSG00000130513): − (− = <0.9)
- renormalizing the translational profile of ASS1 (ENSG00000130707): − (− = <0.9)
- renormalizing the translational profile of EIF2S3 (ENSG00000130741): − (− = <0.9)
- renormalizing the translational profile of RPL27 (ENSG00000131469): − (− = <0.9)
- renormalizing the translational profile of MATN3 (ENSG00000132031): − (− = <0.9)
- renormalizing the translational profile of PPARG (ENSG00000132170): − (− = <0.9)
- renormalizing the translational profile of KDM6B (ENSG00000132510): − (− = <0.9)
- renormalizing the translational profile of RARRES3 (ENSG00000133321): − (− = <0.9)
- renormalizing the translational profile of BIVM (ENSG00000134897): + (+ = 0.9 to 1.5)
- renormalizing the translational profile of ATP5G2 (ENSG00000135390): − (− = <0.9)
- renormalizing the translational profile of KRT7 (ENSG00000135480): ++ (++ = 1.5 to 2.0)
- renormalizing the translational profile of HNRNPA1 (ENSG00000135486): − (− = <0.9)
- renormalizing the translational profile of IL6 (ENSG00000136244): − (− = <0.9)
- renormalizing the translational profile of RPL35 (ENSG00000136942): − (− = <0.9)
- renormalizing the translational profile of NOV (ENSG00000136999): − (− = <0.9)
- renormalizing the translational profile of IER3 (ENSG00000137331): − (− = <0.9)
- renormalizing the translational profile of DDX60 (ENSG00000137628): − (− = <0.9)
- renormalizing the translational profile of RPLP1 (ENSG00000137818): − (− = <0.9)
- renormalizing the translational profile of PAQR5 (ENSG00000137819): + (+ = 0.9 to 1.5)
- renormalizing the translational profile of AOX1 (ENSG00000138356): − (− = <0.9)
- renormalizing the translational profile of FGF5 (ENSG00000138675): − (− = <0.9)
- renormalizing the translational profile of PDE5A (ENSG00000138735): − (− = <0.9)
- renormalizing the translational profile of GAS2L3 (ENSG00000139354): − (− = <0.9)
- renormalizing the translational profile of DIAPH3 (ENSG00000139734): − (− = <0.9)
- renormalizing the translational profile of MYO19 (ENSG00000141140): − (− = <0.9)
- renormalizing the translational profile of RPL13A (ENSG00000142541): − (− = <0.9)
- renormalizing the translational profile of RPL11 (ENSG00000142676): − (− = <0.9)
- renormalizing the translational profile of ACTA1 (ENSG00000143632): + (+ = 0.9 to 1.5)
- renormalizing the translational profile of PLEKHA6 (ENSG00000143850): + (+ = 0.9 to 1.5)
- renormalizing the translational profile of RPL32 (ENSG00000144713): − (− = <0.9)
- renormalizing the translational profile of RPL37 (ENSG00000145592): − (− = <0.9)
- renormalizing the translational profile of BTF3 (ENSG00000145741): − (− = <0.9)
- renormalizing the translational profile of HIGD2A (ENSG00000146066): − (− = <0.9)
- renormalizing the translational profile of CREB5 (ENSG00000146592): − (− = <0.9)
- renormalizing the translational profile of DENND2A (ENSG00000146966): − (− = <0.9)
- renormalizing the translational profile of RPL10 (ENSG00000147403): − (− = <0.9)
- renormalizing the translational profile of EIF3H (ENSG00000147677): − (− = <0.9)
- renormalizing the translational profile of RPL7A (ENSG00000148303): − (− = <0.9)
- renormalizing the translational profile of EIF3M (ENSG00000149100): − (− = <0.9)
- renormalizing the translational profile of FAU (ENSG00000149806): − (− = <0.9)
- renormalizing the translational profile of CCDC102B (ENSG00000150636): − (− = <0.9)
- renormalizing the translational profile of FRMD4A (ENSG00000151474): + (+ = 0.9 to 1.5)
- renormalizing the translational profile of HOMER1 (ENSG00000152413): − (− = <0.9)
- renormalizing the translational profile of PLEKHH2 (ENSG00000152527): − (− = <0.9)
- renormalizing the translational profile of ANKH (ENSG00000154122): − (− = <0.9)
- renormalizing the translational profile of ABCA6 (ENSG00000154262): − (− = <0.9)
- renormalizing the translational profile of OBSCN (ENSG00000154358): + (+ = 0.9 to 1.5)
- renormalizing the translational profile of ADAMTS5 (ENSG00000154736): + (+ = 0.9 to 1.5)
- renormalizing the translational profile of OXA1L (ENSG00000155463): − (− = <0.9)
- renormalizing the translational profile of C9orf85 (ENSG00000155621): − (− = <0.9)
- renormalizing the translational profile of RPL30 (ENSG00000156482): − (− = <0.9)
- renormalizing the translational profile of EEF1A1 (ENSG00000156508): − (− = <0.9)
- renormalizing the translational profile of NRG1 (ENSG00000157168): − (− = <0.9)
- renormalizing the translational profile of ADAMTS4 (ENSG00000158859): − (− = <0.9)
- renormalizing the translational profile of RPL8 (ENSG00000161016): − (− = <0.9)
- renormalizing the translational profile of RPL26 (ENSG00000161970): − (− = <0.9)
- renormalizing the translational profile of RPL29 (ENSG00000162244): − (− = <0.9)
- renormalizing the translational profile of CAMK2N1 (ENSG00000162545): − (− = <0.9)
- renormalizing the translational profile of IGFBP7 (ENSG00000163453): − (− = <0.9)
- renormalizing the translational profile of RPL22L1 (ENSG00000163584): − (− = <0.9)
